Ends that are not written are not given here.
Columns and labels:
[1] = tested on: erythroid precursors (BFU-E and CFU-E); assay: erythroid progenitor BFU-E and CFU-E assay (statements covering both progenitors); assay type: cell-based, human; details: for effect on the stimulatory effect of Epo on both BFU-E and CFU-E: ANF analog 0.32 nM + Epo 250 mU/ml; for potentiation of erythropoiesis versus concentration: with Epo
Description: (§1) Utilization of cell culture techniques allowed for the detection of molecules other than Epo which act on erythropoietic precursor cells. […] The erythroid progenitor BFU-E and CFU-E assay was utilized for the in vitro studies by the following method:
(§2) (1) Collect bone marrow cells from normal human volunteers after obtaining informed consent.
(§3) (2) Suspend cells in α-medium containing 10% fetal calf serum.
(§4) (3) Separate by Ficoll-Hypaque gradient to obtain an enriched mononuclear cell population.
(§5) (4) Culture cells (5×10^4 per plate) in petri dishes using a methylcellulose technique (see, Iscove, J. Cell Physiol 83: 309, (1974)).
(§6) (5) Add Human Epo, available from the Toyoba Corp. of New York, N.Y., to the culture on day zero.
(§7) (6) Add ANF-like peptides on days zero, two, five, eight, and eleven.
(§8) In the absence of Epo, ANF has no effect on erythroid colony formation. In FIG. 1, the effects of α-ANF[1-28] alone and in conjunction with an added amount of Epo were studied. Human α-ANF[1-28] diluted in α-medium, obtained from the Peninsula Corporation, was added to the cultures every three days starting at day zero. Control cultures were supplemented with Phosphate Buffered Saline (PBS) alone. PBS is available from the GIBCO corporation of Grand Island, N.Y. Triplicate plates were incubated at 37° C. in a humidified atmosphere of 7% CO2 in air. On the eighth day, cell aggregates which contained more than seven erythroid cells were counted as CFU-E. On the fourteenth day, aggregates of forty cells or more were counted as BFU-E. Hemoglobinization of the cells was confirmed by using a Soret band and morphologically from stained smears. In FIG. 1, the number of observations is indicated in the bottom part of the bar. The standard estimates from mean (SEM) are indicated as error bars. Statistical significances were obtained by using Kruskal-Wallis Analysis of Variance (one way by ranks). Probabilities in FIGS. 1 and 2 are indicated by: 1*=p<0.05; 2*=p<0.01;3*=p<0.005; and 4*=p<0.001. […] The relative increase of Epo activity caused by the presence of ANF is the subject of this invention.
The numbers were determined using the lowest ANF concentration as a reference point in each group. There were six observations per group. […] The number values for BFU-E and CFU-E in a culture containing 0.25 U/ml Epo and 0.32 nM α-ANF[1-28] are different for FIGS. 1 and 2 because different human volunteer bone marrow donors were used for each study. The absolute numbers are not the focus of this invention, rather, the subject of this invention is the relative increase in the production of BFU-E and CFU-E caused by Epo in the presence of ANF.

peripheral blood BFU-E = peripheral blood BFU-E assay in the absence of T cells and macrophages; assay type: cell-based, human; details: for BFU-E/culture ± SEM: peripheral blood cells, T cells and macrophages removed
Procedure: The cultures contained peripheral blood derived cells instead of bone marrow cells. After Ficoll-Hypaque separation, preparations from peripheral blood were further incubated in plastic dishes twice for thirty minutes to remove macrophages. The majority of T cells were removed by rosetting with sheep red blood cells, available from the Lampire Corporation of Pipersville, Pa., and centrifugation. The remaining T-cells were removed by incubating the cell suspension with Leu-1 antibody, available from Becton-Dickenson, Inc. of Mountain View, Calif., and rabbit complement. Less than 0.3% of macrophages and T cells could be detected in the remaining cell suspension. The probabilities in Table 1 are as follows: *=p<0.025 and **=p<0.005. There were three observations per group. As shown by Table 1, the number of peripheral blood derived BFU-E increased three fold in the presence 0.32 nM of α-ANF[1-28] in cultures containing 250 mU/ml of Epo and less than 0.3% of T cells and macrophages.

CFU-E = assay: erythroid progenitor CFU-E assay, human bone marrow cells in methylcellulose culture; assay type: cell-based; details: for Potentiation of CFU-E(%): ANF analog 0.32 nM + Epo 250 mU/ml, relative to effect of α-ANF[1-28] (100%)
Description: as §1, §2, §3, §4, §5, §6, §7, §8

BFU-E = assay: erythroid progenitor BFU-E assay, human bone marrow cells in methylcellulose culture; assay type: cell-based; details: for Potentiation of BFU-E(%): ANF analog 0.32 nM + Epo 250 mU/ml, relative to effect of α-ANF[1-28] (100%)
Description: as §1, §2, §3, §4, §5, §6, §7, §8

[2] = in the presence of α-ANF[1-28] 0.32 nM and Epo 250 mU/ml

erythropoietin [Epo]
BFU-E and CFU-E yield ([1]; 2,000 mU/ml of Epo compared with 250 mU/ml of Epo, identical α-ANF[1-28] concentrations): higher | effect of Epo alone on erythroid precursors ([1]; Epo alone 250 mU/ml): stimulated both erythroid precursors | BFU-E/culture ± SEM (peripheral blood BFU-E; Experiment 1, Epo 250 mU/ml alone): 7.0 ± 0.9 | BFU-E/culture ± SEM (peripheral blood BFU-E; Experiment 2, Epo 250 mU/ml alone): 14.0 ± 2.0

α-ANF [1-11] (SLRRSSCFGGR; Atrial natriuretic peptide; UniProt P01160 124-134, looked up, fragment) [ANF[1-11], ANF analog available from the Peninsula Corporation]
Potentiation of CFU-E(%) (CFU-E): 14.8 ± 4.6% | effect on the stimulatory effect of Epo on both BFU-E and CFU-E [1]: not significant | Potentiation of BFU-E(%) (BFU-E): -1.5 ± 8.8%

α-ANF dimer
Potentiation of CFU-E(%) (CFU-E): 25.4 ± 13.1% | effect on the stimulatory effect of Epo on both BFU-E and CFU-E [1]: not significant | Potentiation of BFU-E(%) (BFU-E): 40.2 ± 26.7%

α-ANF[1-28] (SLRRSSCFGGRMDRIGAQSGLGCNSFRY; not fully specified; ends and bridges not checked; UniProt P01160 124-151, looked up) [human atrial natriuretic factor peptide, obtained from the Peninsula Corporation]
Potentiation of CFU-E(%) (CFU-E): 100 ± 39.2% | increase in CFU-E (CFU-E; Epo 250 mU/ml plus α-ANF[1-28] 0.32 nM versus Epo alone): two-fold | actual numbers of CFU-E (CFU-E; [2]): 440±176 | effect on erythroid precursors / erythroid colony formation in the absence of Epo ([1]; ANF alone, no Epo (0.32 nM in FIG. 1)): no effect | effect on the stimulatory effect of Epo on both BFU-E and CFU-E [1]: enhanced | increase of BFU-E and CFU-E production ([1]; in the presence of Epo): up to four fold | potentiation of erythropoiesis versus concentration ([1]; α-ANF[1-28] concentrations above 0.96 nM): leveled off or even declined | potentiation of erythropoiesis versus concentration ([1]; α-ANF[1-28] increased from 0.032 nM to 0.96 nM): concentration dependent potentiation | increase in number of peripheral blood derived BFU-E (peripheral blood BFU-E; 0.32 nM α-ANF[1-28], 250 mU/ml Epo, less than 0.3% of T cells and macrophages): three fold | BFU-E/culture ± SEM (peripheral blood BFU-E; Experiment 1, ANF 0.32nM + Epo 250 mU/ml): 22.7 ± 1.9 | BFU-E/culture ± SEM (peripheral blood BFU-E; Experiment 2, ANF 0.32nM + Epo 250 mU/ml): 42.3 ± 6.8 | Potentiation of BFU-E(%) (BFU-E): 100 ± 24.9% | increase in BFU-E (BFU-E; Epo 250 mU/ml plus α-ANF[1-28] 0.32 nM versus Epo alone (FIG. 1)): four-fold | actual numbers of BFU-E (BFU-E; [2]): 103±26

α-ANF[4-28] (RSSCFGGRMDRIGAQSGLGCNSFRY; ends and bridges not checked; cysteine pairing not given here; UniProt P01160 127-151, looked up, fragment) [ANF analog available from the Peninsula Corporation; a major circulatory form of ANF]
Potentiation of CFU-E(%) (CFU-E): 208 ± 41.0% | effect on the stimulatory effect of Epo on both BFU-E and CFU-E [1]: enhanced | Potentiation of BFU-E(%) (BFU-E): 74.8 ± 15.3%

α-ANF[5-28] (SSCFGGRMDRIGAQSGLGCNSFRY; ends and bridges not checked; cysteine pairing not given here; UniProt P01160 128-151, looked up, fragment) [ANF analog available from the Peninsula Corporation; a major circulatory form of ANF]
Potentiation of CFU-E(%) (CFU-E): 143 ± 26.7% | effect on the stimulatory effect of Epo on both BFU-E and CFU-E [1]: enhanced | Potentiation of BFU-E(%) (BFU-E): 98.5 ± 38.6%
